Ends that are not written are not given here.
How the values were obtained:
S. aureus TISTR 517 [1] = assay: Proteolytic enzyme stability, remaining activity by agar well diffusion; format: in vitro ADME, Staphylococcus aureus; settings: proteinase K, trypsin, α-chymotrypsin, both test strains
Description: The antimicrobial activity was measured by an agar well diffusion test with some modified methods. In brief, single colonies of the tested strains were suspended in 0.85% NaCl, and then the OD at 625 nm was adjusted to 0.1. The cell suspensions were spread on MH agar, and the tested samples (100 μL) were introduced into each well before incubation at 37 °C for 24 h. Each experiment was performed in three independent replicates, and the inhibition zone was measured and expressed as mean ± SD.
The stability of the anti-MRSA peptide against several conditions was studied. […] The sensitivity of the peptide sample to proteolytic enzymes was investigated by incubating the sample with proteinase K, trypsin, and α-chymotrypsin (1 mg/mL) for 1 h. Surfactant compatibility of the substance was examined by incubating the sample with 1% SDS and 1% Triton X-100 for 1 h (AppliChem GmbH, Darmstadt, Germany). The acid and base hydrolysis property of the substance was assessed by pH adjustment to 2–14 for 1 h before the samples were neutralized to pH 7. […] The stability profiles were presented as the percentage of activity relative to the untreated condition (mean ± SD), and significant difference was determined by the Student’s t-test at a p-value < 0.05.

human erythrocytes = assay: Hemolysis; format: cell-based; settings: highest concentration with hemolysis below 10% divided by MIC
Description: Human blood (5 mL) from a healthy volunteer was collected in an EDTA tube. The erythrocytes were centrifuged at 700× g for 8 min and washed with PBS pH 7.4 three times. The erythrocytes were diluted with PBS pH 7.4 to reach a 0.5% v/v concentration. The suspension of erythrocytes (50 μL) was transferred to each well in a 96-well plate. The anti-MRSA peptide was dissolved and prepared by performing a 2-fold serial dilution with PBS pH 7.4 before the samples (50 μL) were added to the wells to achieve the final concentrations of 0.25–64 μg/mL. The reactions were incubated at 37 °C for 1 h, and the supernatant was collected by centrifugation at 1000× g for 10 min. The release of hemoglobin was monitored by measuring the absorbance at 540 nm. PBS pH 7.4 and 1% Triton X-100 were used as the negative and positive controls, respectively. The relative hemolysis was determined by normalizing the absorbance of the sample by that of the positive control. Each experiment was performed in three replications.

S. aureus TISTR 517 [2] = assay: Killing kinetics; format: cell-based, Staphylococcus aureus; settings: for killing half-time / rate constant of cell death within 24 h: linear regression; for time of eradication effect: strain not named in the sentence (tested bacteria)
Description: S. aureus TISTR 517 and MRSA isolate 2468 were cultured in CAMHB and standardized to obtain the cell number of 5 × 10^5 CFU/mL for initial treatment. […] The reactions were incubated at 37 °C, and then the total volume was spread on MH agar at specific time intervals (0–24 h). The plates were incubated at 37 °C for 24 h before colony count. […] The rate constant of cell death within 24 h and the killing half-time were calculated based on slope and linear regression relationship, respectively. Each experiment was performed in triplicate in 96-well plates. Significant differences (p-value < 0.05) were analyzed by two-way ANOVA and post hoc Tukey’s test for multiple comparisons between treated and non-treated samples.

[3] = Circular dichroism secondary structure content (CONTINLL); format: physicochemical; settings: CD, 25 °C
Description: The purified peptides (0.6 mg/mL) were dissolved in deionized water or 50 mM SDS and introduced into the circular dichroism (CD) spectrophotometer (JASCO Corporation, Tokyo, Japan). A 1 mm quartz cell was used for the measurement. The CD spectra were collected at 25 °C in the wavelength between 190 and 260 nm with a scanning speed of 100 nm/min, a bandwidth of 1.0 nm, and a data resolution of 0.1 nm. Each experiment was performed in three replications, and the background spectrum of the corresponding solvent was subtracted from the peptide spectrum. The content of the secondary structure of the peptides was calculated using the CONTINLL program.

MRSA isolate 1096 = assay: microbe, parasite or virus in culture; format: cell-based, Staphylococcus aureus; settings: isolate 1096, 24 h
Description: (§1) The MIC and MBC of the purified peptides from SPR-20 were determined by broth microdilution assay following a standard guideline. S. aureus TISTR 517 and MRSA isolate 142, 1096, and 2468 as bacterial strains were cultured in MH agar at 37 °C for 18 h. […] The cells were then diluted to 5 × 10^6 CFU/mL using cation-adjusted Mueller Hinton broth (CAMHB). The diluted cell suspension (10 μL) was transferred to each well of a 96-well plate. The purified peptide in the total volume of 100 µL was added to each well to obtain the final concentrations between 0.5 and 64 µg/mL. The standard antibiotics (vancomycin and cefoxitin) (Sigma-Aldrich Co., St. Louis, MO, USA) and antibiotic-free samples were the positive and negative controls, respectively. CAMHB without tested bacteria was used as a blank. The 96-well plates were incubated at 37 °C for 24 h, and the experiment was performed in triplicate for each strain. […] Subsequently, 100 µL of each dilution was spread on MH agar and then incubated at 37 °C for 24 h.

MRSA isolate 2468 = assay: microbe, parasite or virus in culture; format: cell-based, Staphylococcus aureus; settings: isolate 2468, 24 h
Description: as §1

[4] = tested on: S. aureus TISTR 517 and MRSA strains; assay: microbe, parasite or virus in culture; format: cell-based, Staphylococcus aureus; settings: TISTR 517 and strains, 18 h
Description: as §1

MRSA isolate 142 = assay: microbe, parasite or virus in culture; format: cell-based, Staphylococcus aureus; settings: isolate 142, 24 h
Description: as §1

S. aureus TISTR 517 [5] = assay: microbe, parasite or virus in culture; format: cell-based, Staphylococcus aureus; settings: TISTR 517, 24 h
Description: as §1

## VVVNVLVKVLPPPVV [Peptide P1]
S. aureus TISTR 517 [1]
  activity when incubated with proteolytic enzymes: more than 90%
Human erythrocytes
  therapeutic index of hemolysis (TIhemolysis): 16
S. aureus TISTR 517 [2]; 1× MIC
  killing half-time: 25.36 h
  rate constant of cell death within 24 h: -0.11 h⁻¹
S. aureus TISTR 517 [2]; 2× MIC
  killing half-time: 11.08 h
  rate constant of cell death within 24 h: -0.26 h⁻¹
  time of eradication effect: 24 h
S. aureus TISTR 517 [2]; 3-24 h, 1× MIC
  reduction rate of viable cells: 0.12 h⁻¹
S. aureus TISTR 517 [2]; 3-24 h, 2× MIC
  reduction rate of viable cells: 0.23 h⁻¹
S. aureus TISTR 517 [2]; 3-24 h, 4× MIC
  reduction rate of viable cells: 0.31 h⁻¹
S. aureus TISTR 517 [2]; 4× MIC, 95% CI 5.35 to 20.12
  killing half-time: 9.80 h
S. aureus TISTR 517 [2]; 4× MIC, 95% CI −0.16 to −0.38
  rate constant of cell death within 24 h: -0.27 h⁻¹
S. aureus TISTR 517 [2]; 4× MIC
  time of eradication effect: 18 h
S. aureus TISTR 517 [2]; first 3 h, all peptide concentrations (1×, 2×, 4× MIC)
  reduction rate of viable cells: 0.14 h⁻¹
[3]; 0.6 mg/mL in 50 mM SDS
  Random: 34.6%
  Turn: 10.6%
  α-Helix: 25.5%
  β-Strand: 29.3%
[3]; 0.6 mg/mL in H2O
  Random: 32.4%
  Turn: 19.5%
  α-Helix: 4.1%
  β-Strand: 44.0%
MRSA isolate 1096
  MBC: 4 µg/mL
  MIC: 2 µg/mL
MRSA isolate 2468
  MBC: 4 µg/mL
  MIC: 2 µg/mL
[4]
  MIC: 1.27 µM
MRSA isolate 142
  MBC: 4 µg/mL
  MIC: 2 µg/mL
S. aureus TISTR 517 [5]
  MBC: 4 µg/mL
  MIC: 2 µg/mL
